Source: US20070219186A1, “Pyrazolo[1,5-A]pyrimidine derivatives and methods of use thereof” (priority 2006, published 2007)
Like-named read-outs stand apart in the source and are kept apart here.

Target: T1, human B-Raf (Homo sapiens, UniProt P15056)
T1 construct: Flag; GST; made in house; host or cells: Sf9 insect cells (B-Raf); E. coli (MEK1-GST)
Assay: B-Raf Kinase to MEK1 ELISA
Format: biochemical
Conditions: for inhibition at 10 µM: read-out: % Inhib./10 uM
Excerpt: TITLE: B-Raf Kinase to MEK1 ELISA
PURPOSE: To discover B-Raf Kinase inhibitors that can inhibit growth of tumor cells which contain oncogenic forms of Receptor Tyrosine Kinases or K-Ras, or B-Raf kinase.
Reagents: Flag/GST-tagged recombinant human B-Raf produced in Sf9 insect cells, human non-active Mek-1-GST (recombinant protein produced in E. coli); and a phospho-MEK1 specific poly-clonal Ab from Cell Signaling Technology (cat. #9121).
B-Raf1 Kinase Assay Procedure:
B-Raf-1 is used to phosphorylate GST-MEK1. MEK1 phosphorylation is measured by a phospho-specific antibody (from Cell Signaling Technology, cat. #9121) that detects phosphorylation of two serine residues at positions 217 and 221 on MEK1.
B-Raf Assay Stock Solutions:
1. Assay Dilution Buffer (ADB): 20 mM MOPS, pH 7.2, 25 mM β-glycerol phosphate, 5 mM EGTA, 1 mM sodium orthovanadate, 1 mM dithiothreitol.
2. Magnesium/ATP Cocktail: 200 μM cold ATP and 40 mM magnesium chloride in ADB.
3. Active Kinase: Active B-Raf: used at ˜20 ng per assay point.
4. Non-active GST-MEK1: Use at 100 nM (50 nM final).
6. Anti-GST Ab (Pharmacia)
7. Anti-rabbit Ab/Europium conjugate (Wallac)
1. Add 25 μl of ADB containing B-Raf and Mek per assay (i.e. per well of a 96 well plate)
2. Add 25 μl of 0.2 mM ATP and 40 mM magnesium chloride in ADB.
3. Incubate for 60 minutes at RT in a shaking incubator.
4. Transfer this mixture to an anti-GST Ab coated 96 well plate (Nunc Immunosorb plates coated o/n with a-GST.
5. Incubate for 60 minutes at 30° C. in a shaking incubator
6. Wash 3× with TBST, add Anti-Phospho MEK1 (1:1000)
7. Incubate for 60 minutes at 30° C. in a shaking incubator
8. Wash 3× with TBST, add Anti-rabbit Ab/Europium conjugate (Wallac) (1:500)
9. Incubate for 60 minutes at 30° C. in a shaking incubator
10. Add 100 ul of Wallac Delfia Enhancement Solution and shake for 10 minutes.
11. Read plates in Wallac Victor model Plate Reader.
12. Collect data analyze in Excel for single point and IC50 determinations.
Typically Raf-1 assay is run at cpd concentrations from 10 μM to 30 nM in half log dilutions. (% inhibition is determined for each cpd concentration)

[1] = median, cpd concentrations from 10 μM to 30 nM in half log dilutions, read-out: Median IC50

T1 sequence (P15056 whole entry): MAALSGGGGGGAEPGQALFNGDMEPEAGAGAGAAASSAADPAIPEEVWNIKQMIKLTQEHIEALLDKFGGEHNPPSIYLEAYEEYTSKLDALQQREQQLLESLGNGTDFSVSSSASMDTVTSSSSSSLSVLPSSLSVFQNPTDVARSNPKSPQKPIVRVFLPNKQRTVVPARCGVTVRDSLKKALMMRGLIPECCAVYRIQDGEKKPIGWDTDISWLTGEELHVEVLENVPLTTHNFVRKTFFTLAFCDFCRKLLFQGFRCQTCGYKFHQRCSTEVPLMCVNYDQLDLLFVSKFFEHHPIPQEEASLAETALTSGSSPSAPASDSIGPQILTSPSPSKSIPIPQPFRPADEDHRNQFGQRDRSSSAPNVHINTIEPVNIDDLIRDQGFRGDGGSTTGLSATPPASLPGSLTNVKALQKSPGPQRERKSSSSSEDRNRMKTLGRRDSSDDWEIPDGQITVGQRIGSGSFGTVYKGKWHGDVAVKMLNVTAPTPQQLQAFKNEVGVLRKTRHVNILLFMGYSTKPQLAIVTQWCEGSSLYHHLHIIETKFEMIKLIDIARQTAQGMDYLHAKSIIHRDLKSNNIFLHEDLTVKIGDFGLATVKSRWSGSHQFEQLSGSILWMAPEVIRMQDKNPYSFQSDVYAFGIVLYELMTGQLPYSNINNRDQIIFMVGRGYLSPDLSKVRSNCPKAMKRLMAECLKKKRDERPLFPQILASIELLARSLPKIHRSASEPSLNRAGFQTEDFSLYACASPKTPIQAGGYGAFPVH

IC50	inhibition at 10 µM	IC50 [1]	Structure (SMILES)	inhibition at 10 µM (single point assay, 10 uM)	% Inhib./10 uM (single point assay, 10 uM)
578 nM	77%	–	COc1ccc(-c2cnn3c(-c4cccc(NC(=O)c5cccc(C(F)(F)F)c5)c4)ccnc23)cn1 [Example 312, N-{3-[3-(6-methoxypyridin-3-yl)pyrazolo[1,5-a]pyrimidin-7-yl]phenyl}-3-(trifluoromethyl)benzamide]	–	–
–	47%	> 10000 nM	CCOC(=O)c1cnn2c(-c3cccc(NC(=O)c4ccc(Br)s4)c3)ccnc12 [Example 223, ethyl7-(3-{[(5-bromo-2-thienyl)carbonyl]amino}phenyl)pyrazolo[1,5-a]pyrimidine-3-carboxylate]	–	–
–	24%	> 10000 nM	O=C(Nc1cccc(-c2ccnc3cc(-c4ccncc4)nn23)c1)c1ccccc1Cl [Example 145, 2-chloro-N-[3-(2-pyridin-4-ylpyrazolo[1,5-a]pyrimidin-7-yl)phenyl]benzamide]	–	–
–	94%	112 nM	CCOC(=O)c1cnn2c(-c3cc(NC(=O)c4cccc(C(F)(F)F)c4)ccc3F)ccnc12 [Example 91, ethyl 7-(2-fluoro-5-{[3-(trifluoromethyl)benzoyl]amino}phenyl)pyrazolo[1,5-a]pyrimidine-3-carboxylate]	–	–
100 nM	86%	–	Nc1cccc(-c2cnn3c(-c4cccc(NC(=O)c5cccc(C(F)(F)F)c5)c4)ccnc23)c1 [Example 156, N-{3-[3-(3-aminophenyl)pyrazolo[1,5-a]pyrimidin-7-yl]phenyl}-3-(trifluoromethyl)benzamide]	–	–
–	0%	> 10000 nM	CCOC(=O)c1cnn2c(-c3cccc(NC(=O)c4ccc(Cl)c(Cl)c4)c3)ccnc12 [Example 71, ethyl 7-{3-[(3,4-dichlorobenzoyl)amino]phenyl}pyrazolo[1,5-a]pyrimidine-3-carboxylate]	–	–
–	16%	> 10000 nM	O=C(Nc1cccc(-c2ccnc3cc(O)nn23)c1)c1cccc(C(F)(F)F)c1 [Example 250, N-[3-(2-hydroxypyrazolo[1,5-a]pyrimidin-7-yl)phenyl]-3-(trifluoromethyl)benzamide]	–	–
–	0%	> 10000 nM	O=C(Nc1cccc(-c2ccnc3cc(N4CCN(Cc5ccccc5)CC4)nn23)c1)c1cccc(C(F)(F)F)c1 [Example 207, N-{3-[2-(4-benzylpiperazin-1-yl)pyrazolo[1,5-a]pyrimidin-7-yl]phenyl}-3-(trifluoromethyl)benzamide]	–	–
–	90%	270 nM	CCOC(=O)c1cnn2c(-c3cccc(NC(=O)Nc4ccc(F)c(C(F)(F)F)c4)c3)ccnc12 [Example 44, ethyl 7-{3-[({[4-fluoro-3-(trifluoromethyl)phenyl]amino}carbonyl)amino]phenyl}pyrazolo[1,5-a]pyrimidine-3-carboxylate]	–	–
140 nM	83%	–	CCN(CC)CCNC(=O)c1cnn2c(-c3cccc(NC(=O)Nc4ccc(Cl)c(C(F)(F)F)c4)c3)ccnc12 [Example 122, 7-{3-[({[4-chloro-3-(trifluoromethyl)phenyl]amino}carbonyl)amino]phenyl}-N-[2-(diethylamino)ethyl]pyrazolo[1,5-a]pyrimidine-3-carboxamide]	–	–
–	34%	> 10000 nM	CCOC(=O)c1cnn2c(-c3cccc(NC(=O)c4cc(Cl)ccn4)c3)ccnc12 [Example 217, ethyl7-(3-{[(4-chloropyridin-2-yl)carbonyl]amino}phenyl)pyrazolo[1,5-a]pyrimidine-3-carboxylate]	–	–
–	74%	4200 nM	O=C(Nc1cccc(-c2ccnc3c(Br)cnn23)c1)c1ccc(F)c(C(F)(F)F)c1 [Example 163, N-[3-(3-bromopyrazolo[1,5-a]pyrimidin-7-yl)phenyl]-4-fluoro-3-(trifluoromethyl)benzamide]	–	–
–	76%	471 nM	O=C1CN(c2cc3nccc(-c4cccc(NC(=O)c5cccc(C(F)(F)F)c5)c4)n3n2)CCN1 [Example 249, N-{3-[2-(3-oxopiperazin-1-yl)pyrazolo[1,5-a]pyrimidin-7-yl]phenyl}-3-(trifluoromethyl)benzamide]	–	–
–	49%	8600 nM	CCOC(=O)c1cnn2c(-c3cccc(NC(=O)Cc4cccc(C(F)(F)F)c4)c3)ccnc12 [Example 97, ethyl 7-[3-({[3-(trifluoromethyl)phenyl]acetyl}amino)phenyl]pyrazolo[1,5-a]pyrimidine-3-carboxylate]	–	–
7470 nM	55%	–	N#Cc1ccccc1-c1cnn2c(-c3cccc(NC(=O)c4cccc(C(F)(F)F)c4)c3)ccnc12 [Example 293, N-{3-[3-(2-cyanophenyl)pyrazolo[1,5-a]pyrimidin-7-yl]phenyl}-3-(trifluoromethyl)benzamide]	–	–
–	15%	> 10000 nM	CCOC(=O)c1cnn2c(-c3cccc(NC(=O)Cc4cccc(C)c4)c3)ccnc12 [Example 98, ethyl 7-(3-{[(3-methylphenyl)acetyl]amino}phenyl)pyrazolo[1,5-a]pyrimidine-3-carboxylate]	–	–
–	66%	1400 nM	Cc1cccc(C(=O)Nc2cccc(-c3ccnc4cc(-c5ccncc5)nn34)c2)c1 [Example 147, 3-methyl-N-[3-(2-pyridin-4-ylpyrazolo[1,5-a]pyrimidin-7-yl)phenyl]benzamide]	–	–
> 10000 nM	16%	–	CN1CCN(c2cc3nccc(-c4cccc(NC(=O)c5cccc(C(F)(F)F)c5)c4)n3n2)CC1 [Example 203, N-{3-[2-(4-methylpiperazin-1-yl)pyrazolo[1,5-a]pyrimidin-7-yl]phenyl}-3-(trifluoromethyl)benzamide]	–	–
–	12%	> 10000 nM	CCOC(=O)c1cnn2c(-c3cccc(NC(=O)c4cc(C(F)(F)F)ccc4Cl)c3)ccnc12 [Example 27, ethyl 7-(3-{[2-chloro-5-(trifluoromethyl)benzoyl]amino}phenyl)pyrazolo[1,5-a]pyrimidine-3-carboxylate]	–	–
–	39%	> 10000 nM	CCOCOCc1ccc(-c2cc3nccc(-c4cccc(NC(=O)c5cccc(C(F)(F)F)c5)c4)n3n2)cc1 [Example 140, N-[3-(2-{4-[(ethoxymethoxy)methyl]phenyl}pyrazolo[1,5-a]pyrimidin-7-yl)phenyl]-3-(trifluoromethyl)benzamide]	–	–

Structure (SMILES)	IC50	inhibition at 10 µM	IC50 [1]	inhibition at 10 µM (single point assay, 10 uM)	% Inhib./10 uM (single point assay, 10 uM)
CCOC(=O)c1cnn2c(-c3cccc(NC(=O)Nc4ccc(C#N)c(C(F)(F)F)c4)c3)ccnc12 [Example 78, ethyl 7-{3-[({[4-cyano-3-(trifluoromethyl)phenyl]amino}carbonyl)amino]phenyl}pyrazolo[1,5-a]pyrimidine-3-carboxylate]	570 nM	–	–	85%	–
CN(C)CCNc1cc(-c2cc3nccc(-c4cccc(NC(=O)c5cccc(C(F)(F)F)c5)c4)n3n2)ccn1 [Example 266, N-{3-[2-(2-{[2-(dimethylamino)ethyl]amino}pyridin-4-yl)pyrazolo[1,5-a]pyrimidin-7-yl]phenyl}-3-(trifluoromethyl)benzamide]	53.3 nM	–	–	–	100%
O=C(Nc1cccc(-c2ccnc3cc(-c4ccnc(NCCN5CCC(O)CC5)c4)nn23)c1)c1cccc(C(F)(F)F)c1 [Example 263, N-{3-[2-(2-{[2-(4-hydroxypiperidin-1-yl)ethyl]amino}pyridin-4-yl)pyrazolo[1,5-a]pyrimidin-7-yl]phenyl}-3-(trifluoromethyl)benzamide]	65.8 nM	–	–	–	98%
